Conditions in all cases: exposure time: 90 min
For assay [1], the system named is 1531 (donor line of iPSC-derived cardiomyocytes). The experiment in a line: POD (EC05) for increase in beat frequency (positive chronotrope) vs vehicle; higher = less potent (higher point of departure). In a few lines:
(§1)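 Human iPSC-derived cardiomyocytes from 16 donors, dye-loaded for Ca2+, were treated for 90 min at 37 °C at final concentrations of 0.1, 1, 10 and 100 µM in 0.5% DMSO. Ca2+ flux was measured on a FLIPR Tetra before and after treatment. Hierarchical Bayesian Hill fitting of vehicle-normalised beat frequency, decay-to-rise ratio or peak frequency yielded donor-specific points of departure. Thresholds: 5% change, or 95% loss for peak frequency.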

For the next assay, the system named is 1392 (donor line of iPSC-derived cardiomyocytes). The assay is described as above. Put shortly:
as §1

The subject of the next assay is 1083 (donor line of iPSC-derived cardiomyocytes). The description is as above. In a few lines:
as §1

The next assay relates to 30171 (donor line of iPSC-derived cardiomyocytes). Described as above. In a few lines: as §1
Another assay concerns 30145 (donor line of iPSC-derived cardiomyocytes). The assay is described as above. In a few lines: as §1
Assay [2] relates to 1516 (donor line of iPSC-derived cardiomyocytes). The description is as above. In a few lines:
as §1

A further assay concerns 11235 (donor line of iPSC-derived cardiomyocytes). The assay is described as above. In a few lines:
as §1

Assay [3] relates to 1518 (donor line of iPSC-derived cardiomyocytes). The assay is described as above. In a few lines: as §1
A further assay concerns 1565 (donor line of iPSC-derived cardiomyocytes). The description is as above. In a few lines: as §1
Assay [4] has as its system 1118 (donor line of iPSC-derived cardiomyocytes). The description is as above. Put shortly: as §1
The subject of a further assay is 1535 (donor line of iPSC-derived cardiomyocytes). The assay is described as above. Put shortly:
as §1

A further assay has as its system 1368 (donor line of iPSC-derived cardiomyocytes). The description is as above. In a few lines: as §1
The next assay has as its system 1309 (donor line of iPSC-derived cardiomyocytes). The assay is described as above. In a few lines:
as §1

The subject of a further assay is 20032 (donor line of iPSC-derived cardiomyocytes). The assay is described as above. Put shortly:
as §1

The next assay has as its system 1434 (donor line of iPSC-derived cardiomyocytes). The description is as above. In a few lines:
as §1

The next assay concerns 20084 (donor line of iPSC-derived cardiomyocytes). The assay is described as above. In a few lines: as §1
Assay [5] relates to 1531. Kind of assay: POD (EC05) for increase in Ca2+ transient decay-to-rise ratio (QT prolongation) vs vehicle; higher = less potent (higher point of departure). Put shortly:
as §1

The subject of assay [6] is 1516. Described as above. In a few lines:
as §1

The subject of assay [7] is 1518. The description is as above. In a few lines: as §1
In assay [8] the test system is 1118. Kind of assay: POD (EC05) for decrease in beat frequency (negative chronotrope) vs vehicle; higher = less potent (higher point of departure). Put shortly:
as §1

In the case of `O=C(O)C(F)(F)C(F)(F)C(F)(F)OC(F)(F)F` [Perfluoro(4-methoxybutanoic)_acid], the POD vs vehicle in the assay on 1531 [1], in the assay with 1392, in the assay on 1083, in the assay with 30171, in the assay with 30145 and in the assay on 1516 [2] was more than 100 µM in each case. The POD vs vehicle with 11235, in the assay with 1518 [3], with 1565, in the assay with 1118 [4], in the assay with 1535 and in the assay on 1368 was more than 100 µM in each case. Besides, the POD vs vehicle in the assay with 1309, in the assay on 20032, with 1434, in the assay on 20084, in the assay on 1531 [5] and in the assay with 1516 [6] was more than 100 µM throughout. Besides, the POD vs vehicle with 1518 [7] and in the assay on 1118 [8] was more than 100 µM throughout.

For the compound `O=P(O)(O)CCC(F)(F)C(F)(F)C(F)(F)C(F)(F)C(F)(F)C(F)(F)C(F)(F)C(F)(F)F` [((Perfluorooctyl)ethyl)phosphonic_acid], the POD vs vehicle with 1531 [1], in the assay with 1392, in the assay with 1083, with 30171, with 30145 and in the assay with 1516 [2] was more than 100 µM in each case. The POD vs vehicle in the assay with 11235, with 1518 [3], with 1565, in the assay on 1118 [4], in the assay with 1535 and in the assay on 1368 was more than 100 µM in each case. The POD vs vehicle with 1309, in the assay on 20032, in the assay on 1434, in the assay on 20084, in the assay with 1531 [5] and in the assay on 1516 [6] was more than 100 µM throughout. Further, the POD vs vehicle with 1518 [7] and with 1118 [8] was more than 100 µM in each case.

Turning to `OCCC(F)(F)C(F)(F)C(F)(F)C(F)(F)C(F)(F)C(F)(F)F` [6:2 Fluorotelomer alcohol], the POD vs vehicle in the assay on 1531 [1], in the assay on 1392, with 1083, in the assay with 30171, in the assay with 30145 and with 1516 [2] was more than 100 µM throughout. For the same compound, the POD vs vehicle in the assay on 11235 was more than 100 µM; in the assay with 1518 [3], more than 100 µM; in the assay on 1565 it was more than 100 µM; in the assay on 1118 [4] it was more than 100 µM; in the assay with 1535, 5.24 µM; with 1368, more than 100 µM. Besides, the POD vs vehicle with 1309 is more than 100 µM; with 20032, more than 100 µM; in the assay with 1434, 1.73 µM; with 20084, more than 100 µM; with 1531 [5] it was more than 100 µM; in the assay with 1516 [6], more than 100 µM. Moreover, the results for the POD vs vehicle in the assay with 1518 [7] and in the assay on 1118 [8] were more than 100 µM and 31.5 µM, respectively.

Turning to `O=C(O)C(F)(F)C(F)(F)F` [Perfluoropropanoic_acid], the POD vs vehicle with 1531 [1], in the assay on 1392, in the assay on 1083, in the assay with 30171, with 30145 and in the assay on 1516 [2] was more than 100 µM each time. Also, the POD vs vehicle in the assay with 11235, in the assay with 1518 [3], in the assay with 1565, in the assay on 1118 [4], in the assay with 1535 and with 1368 was more than 100 µM throughout. For the same compound, the POD vs vehicle in the assay on 1309 was more than 100 µM; in the assay with 20032, more than 100 µM; with 1434, more than 100 µM; in the assay on 20084 it was more than 100 µM; in the assay on 1531 [5], 0.307 µM; in the assay on 1516 [6], more than 100 µM. Further, the POD vs vehicle in the assay with 1518 [7] and with 1118 [8] was more than 100 µM throughout.

As to `O=C(O)C(F)(F)C(F)(F)C(F)(F)F` [Perfluorobutanoic_acid], the POD vs vehicle in the assay on 1531 [1], in the assay with 1392, in the assay with 1083, with 30171, in the assay with 30145 and in the assay with 1516 [2] was more than 100 µM in each case. For the same compound, the POD vs vehicle in the assay on 11235, in the assay on 1518 [3], with 1565, in the assay on 1118 [4], in the assay on 1535 and in the assay with 1368 was more than 100 µM each time. Besides, the POD vs vehicle in the assay on 1309, in the assay with 20032, in the assay with 1434, with 20084, in the assay on 1531 [5] and in the assay with 1516 [6] was more than 100 µM each time. For the same compound, the POD vs vehicle in the assay on 1518 [7] and in the assay on 1118 [8] was more than 100 µM each time.

As for `OCC(F)(F)C(F)(F)C(F)(F)C(F)(F)C(F)(F)C(F)F` [Dodecafluoroheptanol], the POD vs vehicle in the assay on 1531 [1], in the assay on 1392, in the assay with 1083, with 30171, with 30145 and with 1516 [2] was more than 100 µM in each case. Also, the POD vs vehicle with 11235, in the assay on 1518 [3], in the assay with 1565, with 1118 [4], in the assay with 1535 and in the assay with 1368 was more than 100 µM throughout. Moreover, the POD vs vehicle in the assay on 1309, in the assay on 20032, with 1434, with 20084, in the assay on 1531 [5] and with 1516 [6] was more than 100 µM in each case. Also, the POD vs vehicle in the assay on 1518 [7] was more than 100 µM; in the assay on 1118 [8], 1.39 µM.

On to `O=C(O)C=CC(F)(C(F)(F)F)C(F)(F)F` [3-(Perfluoroisopropyl)-2-propenoic_acid], for which the POD vs vehicle in the assay with 1531 [1], in the assay with 1392, in the assay on 1083, with 30171, in the assay with 30145 and in the assay on 1516 [2] was more than 100 µM each time. In addition, the POD vs vehicle with 11235, with 1518 [3], with 1565, with 1118 [4], in the assay with 1535 and with 1368 was more than 100 µM throughout. For the same compound, the POD vs vehicle in the assay on 1309, with 20032, in the assay on 1434, in the assay on 20084, in the assay on 1531 [5] and with 1516 [6] was more than 100 µM throughout. Further, the POD vs vehicle in the assay on 1518 [7] and in the assay with 1118 [8] was more than 100 µM in each case.
